Assay results published in the supplement of paper PMC7287046.
Values belong to the compound of their own block, whether it stands above or below them.

Key:
Details in all cases: exposure time: 72 h
T98 [1] = tested on: T98
Protocol: (§1)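 Glioma cell lines and primary cultures were treated with single drugs in a nine-step threefold dilution series, about 72 h. Viability was read by CellTiter-Glo and normalised to untreated controls. Absolute IC50 was fitted in GraphPad Prism; values beyond the tested dose range are censored at the block's top or lowest dose.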

U118 [2] = tested on: U118
Protocol: as §1

CAS-1 = tested on: CAS-1
Protocol: as §1

SF268 [3] = tested on: SF268
Protocol: as §1

SNB75 [4] = tested on: SNB75
Protocol: as §1

SF539 [5] = tested on: SF539
Protocol: as §1

KNS42 [6] = tested on: KNS42
Protocol: as §1

U251 [7] = tested on: U251
Protocol: as §1

U87 [8] = tested on: U87
Protocol: as §1

AM38 [9] = tested on: AM38
Protocol: as §1

KNS-42 [10] = experiment: Bliss synergy score (Combenefit); higher = more synergy; extreme values may be limits of the assay
In short: (§2)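 Glioma cell lines in 96-well plates received pairs of drugs 24 h after plating, with an untreated control repeated sixfold. Each drug's top dose was set at its own IC50. The doses ran in 6 × 6 matrices of twofold steps, and readings taken three days later were made at least in triplicate. Viability by CellTiter-Glo, as percent of DMSO controls, was normalised and scored for Loewe, Bliss and highest single agent synergy in Combenefit.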

U118 [11] = experiment: as above
In short: as §2

SF268 [12] = experiment: as above
In short: as §2

SNB75 [13] = experiment: as above
In short: as §2

SF539 [14] = experiment: as above
In short: as §2

T98G [15] = experiment: as above
In short: as §2

U251 [16] = experiment: as above
In short: as §2

AM-38 [17] = experiment: as above
In short: as §2

U87 [18] = experiment: as above
In short: as §2

KNS-42 [19] = experiment: Loewe synergy score (Combenefit); higher = more synergy; extreme values may be limits of the assay
In short: as §2

U118 [20] = experiment: as above
In short: as §2

SF268 [21] = experiment: as above
In short: as §2

SNB75 [22] = experiment: as above
In short: as §2

SF539 [23] = experiment: as above
In short: as §2

T98G [24] = experiment: as above
In short: as §2

U251 [25] = experiment: as above
In short: as §2

AM-38 [26] = experiment: as above
In short: as §2

U87 [27] = experiment: as above
In short: as §2

KNS-42 [28] = experiment: HSA synergy score (Combenefit); higher = more synergy
In short: as §2

U118 [29] = experiment: as above
In short: as §2

SF268 [30] = experiment: as above
In short: as §2

SNB75 [31] = experiment: as above
In short: as §2

SF539 [32] = experiment: as above
In short: as §2

T98G [33] = experiment: as above
In short: as §2

U251 [34] = experiment: as above
In short: as §2

AM-38 [35] = experiment: as above
In short: as §2

U87 [36] = experiment: as above
In short: as §2

T98 [37] = experiment: Chou-Talalay combination index (dimensionless); higher = less synergy (more antagonism)
In short: (§3)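 For combination testing, glioma cell lines were seeded at optimal density in 96-well plates, or in low-adhesion plates for primary cultures. Treatment began after 24 h with two drugs crossed in a 6 × 6 matrix of twofold dilutions, alongside an untreated control repeated sixfold, and CellTiter-Glo was read three days later at least in triplicate. Dilutions of each drug started from its single-drug IC50. Viability relative to DMSO controls, in percent, fed a median-effect calculation of the Chou–Talalay combination index.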

U118 [38] = experiment: as above
In short: as §3

SF268 [39] = experiment: as above
In short: as §3

SNB75 [40] = experiment: as above
In short: as §3

SF539 [41] = experiment: as above
In short: as §3

KNS42 [42] = experiment: as above
In short: as §3

U251 [43] = experiment: as above
In short: as §3

U87 [44] = experiment: as above
In short: as §3

AM38 [45] = experiment: as above
In short: as §3

- IC50 (absolute, viability) (U251 [7]): 6150 nM
- IC50 (absolute, viability) (U87 [8]): 7180 nM
SMILES: C=CCc1cccc(/C=N/NC(=O)CN2CCN(Cc3ccccc3)CC2)c1O [PAC-1]
- IC50 (absolute, viability) (T98 [1]): 1710 nM
- IC50 (absolute, viability) (U118 [2]): 5440 nM
- IC50 (absolute, viability) (CAS-1): > 100000 nM
- IC50 (absolute, viability) (SF268 [3]): 2970 nM
- IC50 (absolute, viability) (SNB75 [4]): 2980 nM
- IC50 (absolute, viability) (SF539 [5]): 3060 nM
- IC50 (absolute, viability) (KNS42 [6]): 17800 nM
- IC50 (absolute, viability) (AM38 [9]): 404 nM

SMILES: CO[C@H]1C[C@@H]2CC[C@@H](C)[C@@](O)(O2)C(=O)C(=O)N2CCCC[C@H]2C(=O)O[C@H]([C@H](C)C[C@@H]2CC[C@@H](O)[C@H](OC)C2)CC(=O)[C@H](C)/C=C(\C)[C@@H](O)[C@@H](OC)C(=O)[C@H](C)C[C@H](C)/C=C/C=C/C=C/1C [Rapamycin]
- IC50 (absolute, viability) (T98 [1]): < 3.02 nM
- IC50 (absolute, viability) (U118 [2]): > 6600 nM
- IC50 (absolute, viability) (SNB75 [4]): > 6600 nM
- IC50 (absolute, viability) (SF539 [5]): < 3.02 nM
- IC50 (absolute, viability) (KNS42 [6]): > 6600 nM
- IC50 (absolute, viability) (AM38 [9]): < 3.02 nM

SMILES: CCC(=O)N1CCN(c2ccc(-n3c(=O)ccc4cnc5ccc(-c6cnc7ccccc7c6)cc5c43)cc2C(F)(F)F)CC1 [Torin1]
- IC50 (absolute, viability) (T98 [1]): 25.1 nM
- IC50 (absolute, viability) (U118 [2]): 27.4 nM
- IC50 (absolute, viability) (CAS-1): 28.5 nM
- IC50 (absolute, viability) (SF268 [3]): 74.6 nM
- IC50 (absolute, viability) (SNB75 [4]): 19.1 nM
- IC50 (absolute, viability) (SF539 [5]): 28 nM
- IC50 (absolute, viability) (KNS42 [6]): 434 nM
- IC50 (absolute, viability) (U251 [7]): 199 nM
- IC50 (absolute, viability) (U87 [8]): 17.4 nM
- IC50 (absolute, viability) (AM38 [9]): 4.18 nM

SMILES: CCC(=O)N1CCN(c2ccc(-n3c(=O)ccc4cnc5ccc(-c6cnc7ccccc7c6)cc5c43)cc2C(F)(F)F)CC1 [Torin1] + C#Cc1cccc(Nc2ncnc3cc(OCCOC)c(OCCOC)cc23)c1 [Erlotinib]
- Bliss synergy score (KNS-42 [10]): 1.13
- Bliss synergy score (U118 [11]): 2.65
- Bliss synergy score (SF268 [12]): 0.392
- Bliss synergy score (SNB75 [13]): 15.6
- Bliss synergy score (SF539 [14]): 0.68
- Bliss synergy score (T98G [15]): 4.09
- Bliss synergy score (U251 [16]): 25.4
- Bliss synergy score (AM-38 [17]): 0
- Bliss synergy score (U87 [18]): 0.359
- Loewe synergy score (KNS-42 [19]): 3.69
- Loewe synergy score (U118 [20]): 13.7
- Loewe synergy score (SF268 [21]): 10.5
- Loewe synergy score (SNB75 [22]): 10.2
- Loewe synergy score (SF539 [23]): 9.6
- Loewe synergy score (T98G [24]): 11
- Loewe synergy score (U251 [25]): 32.9
- Loewe synergy score (AM-38 [26]): 0
- Loewe synergy score (U87 [27]): 6.1
- HSA synergy score (KNS-42 [28]): 3.86
- HSA synergy score (U118 [29]): 20.5
- HSA synergy score (SF268 [30]): 15.2
- HSA synergy score (SNB75 [31]): 18.2
- HSA synergy score (SF539 [32]): 14
- HSA synergy score (T98G [33]): 11.1
- HSA synergy score (U251 [34]): 35.3
- HSA synergy score (AM-38 [35]): 0
- HSA synergy score (U87 [36]): 11.5
- Chou-Talalay combination index (T98 [37]): 0.249
- Chou-Talalay combination index (U118 [38]): 0.744
- Chou-Talalay combination index (SF268 [39]): 0.819
- Chou-Talalay combination index (SNB75 [40]): 0.61
- Chou-Talalay combination index (SF539 [41]): 0.678
- Chou-Talalay combination index (KNS42 [42]): 0.917
- Chou-Talalay combination index (U251 [43]): 0.279
- Chou-Talalay combination index (U87 [44]): 0.58
- Chou-Talalay combination index (AM38 [45]): 0.754
